Test results taken from US20180243345A1, “METHOD FOR INCREASING MUSCLE GROWTH USING KRILL EXTRACT” (AVOCA, INC., priority 2015, published 2018).

Test system: mTOR signaling
Test: mTOR signaling in C2C12 myoblasts (Western blot, ratio of P-p70-389 to total p70)
Format: cell-based
Conditions: for change in ratio of P-p70-389 to total p70 (mTOR signaling) compared to vehicle/control, in words / mTOR signaling compared with another stimulant, in words: 10 or 30 μM, 20 minutes; for mTOR signaling (ratio of P-p70-389 to total p70): 20 minutes stimulation, compared to vehicle
Experimental: C2C12 myoblasts were plated at approximately 30% confluence and grown for 24 hours in 10% FBS High Glucose DMEM with antibiotics (100m/ml streptomycin and 100 U/ml penicillin; Sigma). At 16 hours prior to the experiment, myoblasts cells were switched to serum free high glucose DMEM (no antibiotics) and were approximately 70% confluent at the time of the experiment. All stimulants were dissolved in chloroform to yield a concentration of 10 mg/mL, with the exception of DAG which was dissolved at 2 mg/mL and G3P which was dissolved at 6 mg/mL. […] Accordingly, cells were stimulated for 20 minutes with vehicle (Control; 100 μL of PBS) 10 or 30 μM of RIMFROST Sublime Krill Oil Extract (Rimfrost USA, Inc, Merry Hill, N.C.), soy-derived (S) phosphatidylserine (S-PS), phosphatidylinositol (S-PI), phosphatidylethanolamine (S-PE), phosphatidylcholine (S-PC), phosphatidic acid (S-PA), lysophosphatidic acid (S-LPA), diacylglycerol (DAG), glycerol-3-phosphate (G3P), or egg-derived PA (E-PA). Cells were then harvested in lysis buffer (40 mM Tris, pH 7.5; 1 mM EDTA; 5 mM EGTA; 0.5% Triton X-100; 25 mM (3-glycerophosphate; 25 mM NaF; 1 mM Na3VO4; 10 μg/mL leupeptin; and 1 mM PMSF) and subjected to immunoblotting as previously described. The ratio of P-p70-389 to total p70 was used as readout for mTOR signaling. As used in the Examples disclosed herein, 10 μM of RIMFROST Sublime Krill Oil Extract contains 0.01253 μM PS, which is 0.6% of the phospholipid content; and 30 μM of RIMFROST Sublime Krill Oil Extract contains 0.0376 μM PS, which is 0.6% of the phospholipid content.
The data was analyzed using a one way analysis of variance (ANOVA). A Tukey's Multiple Comparison Test was used to determine significant differences between treatments. Significance was set at P<0.05. Statistical analyses were performed on SigmaStat software (San Jose, Calif., USA).
In accordance with the materials and methods described above, krill extract, S-PC, S-PS, and S-PA were tested for their ability to activate mTOR signaling. […] The samples were then subjected to Western blot analysis for p70S6K phosphorylation on the threonine 389 residue (p′70-389) and total p70. The ratio of these signals was calculated and used as a marker of mTOR signaling.

Compound	change in ratio of P-p70-389 to total p70 (mTOR signaling) compared to vehicle/control, in words	mTOR signaling (ratio of P-p70-389 to total p70) (taken as 10 μM) [%]	mTOR signaling (ratio of P-p70-389 to total p70) (taken as 30 μM) [%]	mTOR signaling compared with another stimulant, in words
O=P(O)(O)OCC(O)CO (stereo not drawn) [G3P, glycerol-3-phosphate]	no increase	–	–	–
phosphatidic acid [E-PA]	–	206	221	–
phosphatidylinositol [S-PI]	no increase	–	–	–
lysophosphatidic acid [S-LPA]	–	638	694	to a greater degree than did E-PA
phosphatidylcholine [S-PC]	no increase	–	–	–
phosphatidylethanolamine [S-PE]	no increase	–	–	–
phosphatidylserine [S-PS]	–	529	558	–
phosphatidic acid [S-PA]	–	658	636	to a greater degree than did E-PA
diacylglycerol [DAG]	no increase	–	–	–
